Patent publication US20250034210A1, “DLL3 TARGETING PEPTIDES AND CONSTRUCTS THEREOF” (MARIANA ONCOLOGY INC., priority 2023, published 2025)
*1 amine or outer side, *2 acyl side, *3 side chain or, on linkers, in order; H or OH if unused. Where a SMILES comes first, the peptide text is derived from it. Bridges are numbered along the chain shown (N, C = ends). [ ]: non-standard residue; d: D form. The star is where a group is joined. DOTA = O=C(O)CN1CCN(CC(=O)O)CCN(CC(=O)*)CCN(CC(=O)O)CC1; γGlu = O=C(O)[C@H](CCC(=O)[*:2])N[*:1]; Ahx = NCCCCCC(=O)O

Key:
SHP-77 tumors = assay: Ex vivo biodistribution of radiolabeled peptides in nude mice bearing SHP-77 tumors; details: [^177Lu]Lu labelling; nude mice bearing SHP-77 tumors (n = 3); 24 hours post-injection; intravenous
Experimental: [^177Lu]LuCl3 was received from venders in HCl solution. For every mCi of [^177Lu]LuCl3 added to the reaction vial (1.5 mL Eppendorf vial), ammonium acetate buffer (0.2 M, pH 4.9, 100 μL, containing 1% w/v ascorbic acid and 6% v/v ethanol) and peptide conjugate (1 nmol also referred to herein as “chelator-peptides”) was added. A peptide conjugate of the present disclosure is also referred to herein as a “chelator-peptide”. The pH of the solution was determined to be approximately 5 by using pH strips. The reaction vial was incubated at 80° C., 700 RPM for 17-20 minutes. A sample from the reaction was analyzed by RP-HPLC using an Agilent Infinity II 1260 HPLC to determine reaction completion and radiochemical purity of [^177Lu]Lu-chelator-peptide. HPLC conditions: Waters XBridge BEH C18 Column, 130 A, 3.5 um, 4.6 mm×250 mm; mobile phase: Solvent A=water (with 0.1% formic acid), solvent B=acetonitrile (with 0.1% formic acid). Gradients: 25-45% B in 10 minutes, 45-65% B in 12 minutes, 65-90% in 6 minutes at a flow rate of 0.5 mL/min. Required amounts of the product was formulated in 1% PBSA for cell studies.
Mice were intravenously injected (via the lateral tail vein) with a bolus dose of the radiolabeled peptides for ex vivo biodistribution studies when tumor volumes were in range of 200-400 mm^3 for xenograft mice and when age of the mice was 5-7 weeks for tumor naïve mice studies. To assess the amount of radionuclide injected into individual mice the syringe was assayed in a dose calibrator before and after injection for [^177Lu]Lu-peptide.
Mice were euthanized at pre-determined time points and selected tissues were resected and collected into pre-weighed tubes. The tubes were then reweighed post resection, the difference giving the weight of each tissue. Radioactivity in each tissue was measured using a gamma counter. Counts were decay corrected to the time of injection and percentage of injected activity per gram (% IA/g) was calculated for each tissue based on the injected activity into each individual mouse. Injected activity was converted to counts based on the sensitivity of the gamma counter. The counts in tissue were then converted to the percentage of injected activity and this was divided by the mass of tissue to give % IA/g.

human DLL3 = target: T1, human DLL3 (Homo sapiens, UniProt Q9NYJ7); assay: Affinity determination by Surface Plasmon Resonance (SPR), biotinylated human DLL3 immobilized on streptavidin sensor chip; details: 25° C., Biacore, 1:1 binding model
T1 construct: biotin (biotinylated)
T1 sequence (Q9NYJ7 27-618): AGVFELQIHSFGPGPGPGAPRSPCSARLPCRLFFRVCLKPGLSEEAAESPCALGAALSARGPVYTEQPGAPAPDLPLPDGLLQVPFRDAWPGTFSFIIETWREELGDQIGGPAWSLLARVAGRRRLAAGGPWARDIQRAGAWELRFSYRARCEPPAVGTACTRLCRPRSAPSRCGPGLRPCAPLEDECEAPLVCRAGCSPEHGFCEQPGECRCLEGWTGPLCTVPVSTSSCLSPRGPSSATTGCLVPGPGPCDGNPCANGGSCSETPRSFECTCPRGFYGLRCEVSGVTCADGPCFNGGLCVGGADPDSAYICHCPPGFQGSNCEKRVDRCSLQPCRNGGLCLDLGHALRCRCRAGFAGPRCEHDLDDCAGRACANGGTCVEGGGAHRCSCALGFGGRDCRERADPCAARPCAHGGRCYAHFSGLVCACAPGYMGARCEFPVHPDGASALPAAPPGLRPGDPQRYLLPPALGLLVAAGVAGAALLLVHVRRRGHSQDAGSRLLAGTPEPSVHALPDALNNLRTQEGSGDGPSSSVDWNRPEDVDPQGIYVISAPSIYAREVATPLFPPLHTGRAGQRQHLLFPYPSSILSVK
Experimental: Affinity Determination by Surface Plasmon Resonance (SPR). SPR studies were performed on the compounds disclosed herein using the following protocol.
The binding affinity and binding kinetic parameters at 25° C. were determined using Biacore S200 or biacore 8K instrument. Biotinylated target ligand human DLL3 was immobilized on a streptavidin sensor chip. A reference surface was set up for nonspecific binding and refractive index changes. For analysis of the kinetics of interactions, varying concentrations of samples were injected at a flow rate of 100 μL/min using running buffer containing 20 mM phosphate buffer with 2.7 mM KCl, 137 mM NaCl, 0.05% Surfactant P20 and 2% DMSO. Sensorgram curves were fitted with 1:1 binding model, and affinity and kinetic parameters were obtained using Biacore Insight evaluation 4.0. software.

Structure (SMILES)	kidney uptake (% IA/g) (SHP-77 tumors)	tumor uptake (% IA/g) (SHP-77 tumors)	Kd (human DLL3) [nM]
CC[C@H](C)[C@H](NC(=O)[C@@H](NC(=O)[C@H](Cc1c[nH]c2ccccc12)NC(=O)CCCCCNC(=O)CN1CCN(CC(=O)O)CCN(CC(=O)O)CCN(CC(=O)O)CC1)[C@@H](C)O)C(=O)N[C@H]1CSSC[C@@H](C(=O)N[C@@H](Cc2c[nH]c3ccccc23)C(=O)N2CCC[C@@H]2C(N)=O)NC(=O)[C@H](CC(=O)O)NC(=O)[C@H](Cc2cnc[nH]2)NC(=O)[C@H](Cc2c[nH]c3ccccc23)NC(=O)[C@H](CC(N)=O)NC(=O)[C@H](CC(N)=O)NC1=O [compound 18, DOTA-Ahx-W-T-I-C(3)-N-N-W-H-D-C(3)-W-P-CONH2] ({DOTA-Ahx}-WTICNNWHDCW[dP]-NH2; disulfide 4-10)	D (% IA/g > 10 in kidney)	A (0 < % IA/g ≤ 5 in tumor)	1 to 10
CC[C@H](C)[C@H](NC(=O)[C@@H](NC(=O)[C@H](Cc1c[nH]c2ccccc12)NC(=O)CC[C@H](NC(=O)CC[C@H](NC(=O)CC[C@H](NC(=O)CN1CCN(CC(=O)O)CCN(CC(=O)O)CCN(CC(=O)O)CC1)C(=O)O)C(=O)O)C(=O)O)[C@@H](C)O)C(=O)N[C@H]1CSSC[C@@H](C(=O)N[C@@H](Cc2c[nH]c3ccccc23)C(=O)N2CCC[C@H]2C(N)=O)NC(=O)[C@H](CC(=O)O)NC(=O)[C@H](Cc2c[nH]cn2)NC(=O)[C@H](Cc2c[nH]c3ccccc23)NC(=O)[C@H](CC(N)=O)NC(=O)[C@H](CC(N)=O)NC1=O [compound 82, DOTA-(gE)3-W-T-I-C(3)-N-N-W-H-D-C(3)-W-P-CONH2] ({DOTA-γGlu-γGlu-γGlu}-WTICNNWHDCWP-NH2; disulfide 4-10)	D (% IA/g > 10 in kidney)	A (0 < % IA/g ≤ 5 in tumor)	
